Data from PMC6988309, “Preclinical efficacy for a novel tyrosine kinase inhibitor, ArQule 531 against acute myeloid leukemia” (Journal of Hematology & Oncology, 2020).

Legend:
FLT3-ITD = FLT3-ITD (Homo sapiens, UniProt P36888, ITD); assay: Biochemical assay of recombinant kinases, FLT3-ITD; conditions: recombinant kinase domain, 10 μmol/L ATP
Description: Biochemical inhibition of FLT3-WT and FLT3-ITD fusion was measured using recombinant protein constructs of kinase domains (Reaction Biology).

U937 = assay: MTS proliferation assay 72 h, U937; assay type: cell-based, human
Description: (§2) A total of 5000–30,000 cells from the lines above were treated in a 96-well plate for 72 h. CellTiter 96 Aqueous MTS reagent (Promega, Madison, WI) was added to cells followed by a 3-h incubation at 37 °C, 5% CO2. The absorbance was measured at 490 nm using DTX 880 plate reader and the half maximal inhibitory concentration (IC50) was calculated using GraphPad Prism 7 (GraphPad Software, La Jolla, CA) and SAS/STAT software (SAS v9.4 for Windows, SAS Institute, Inc., Cary, NC). For the MOLM-13 resistant and the Ba/F3-FLT3-ITD/TKD cell lines, cells were treated for 72 h and cell viability was evaluated using MTT assay (Roche Diagnostics. Mannheim. Germany) according to the manufacturer’s instructions.

Ba/F3 FLT3-ITD = assay: MTT proliferation assay 72 h, Ba/F3 FLT3-ITD; assay type: cell-based, murine; conditions: Mus musculus, read-out: Estimated absolute µM IC50 and 95% CI
Description: as §2

[1] = system: MOLM-13 disseminated AML xenograft; assay: MOLM-13 disseminated xenograft, single agent study (NSG mice); assay type: in vivo
Description: (§1) All experiments were conducted after approval of The Ohio State University Institutional Animal Care and Use Committee. Mice were randomized and enrolled for daily oral gavage (Q.D.P.O) treatment of vehicle or 50 mg/kg ARQ 531. Mice were treated until reaching early removal criteria (ERC) defined as 20% weight loss, lethargy, hind limb paralysis, moribund, anorexia, dehydration, hunched posture, severe diarrhea, breathing difficulties, or any abnormal neurological symptoms.
A total of 10,000 luciferase expressing MOLM-13 cells were engrafted via tail vein injection in NSG mice (The Jackson Laboratory, Bar Harbor, ME) for the single agent ARQ 531 study or NCG mice (Charles River Laboratories, Wilmington, MA) for the ARQ 531 + venetoclax (ARQ + Ven) combination study. For the first single agent ARQ 531 study, mice were treated 7 days post-engraftment. Due to the aggressiveness of the MOLM-13 model, mice were treated 4 days post-engraftment in the ARQ + Ven combination study. In both studies, mice were treated daily via oral gavage with vehicle (10% absolute alcohol, 10% Cremophor-EL, 80% saline) or 50 mg/kg ARQ 531, and 75 mg/kg venetoclax ± 50 mg/kg ARQ 531 for the combination study. Weekly in vivo imaging was performed using In Vivo Imaging System (IVIS) imager (PerkinElmer, Waltham, MA).
Kaplan–Meier survival curve in the MOLM-13 disseminated AML xenograft model. […]

[2] = system: MOLM-13 disseminated AML xenograft; assay: MOLM-13 disseminated xenograft, ARQ + Ven combination study (NCG mice); assay type: in vivo; conditions: 50 mg/kg ARQ 531 and/or 75 mg/kg venetoclax Q.D.P.O from 4 days post-engraftment until ERC; vehicle 25 days
Description: as §1, with “symptoms. […]” for “symptoms.”
Fig. 7 BCL2 inhibition improves ARQ 531 in vivo activity. a Kaplan–Meier survival curve in the MOLM-13 xenograft after mice were treated with vehicle (N = 9) or 50 mg/kg ARQ 531 Q.D.P.O (N = 9) or 75 mg/kg venetoclax Q.D.P.O (N = 10) or 50 mg/kg ARQ 531 and 75 mg/kg venetoclax combination Q.D.P.O (N = 10) at 4 days post engraftment until ERC. b Noninvasive serial whole body bioluminescence imaging of ventral view to monitor leukemia progression and regression post treatment. Mice were injected with 150 mg/kg Firefly D-Luciferin for evaluation of tumor burden as determined by whole body bioluminescence imaging using IVIS imager

[3] = system: phosphorylated SFK, FLT3, STAT5, and ERK; assay: Immunoblot of phosphorylated SFK, FLT3, STAT5 and ERK in FLT3-ITD cell lines; assay type: cell-based, human; conditions: MOLM-13 and MV4-11, serum starved, 10-min treatment
Description: Cell lines were serum starved overnight followed by a 10-min treatment. Cells were washed in ice-cold PBS then lysed in 1X Cell Lysis Buffer (CST) supplemented with proteinase and phosphatase inhibitors cocktail (Roche). Pierce BCA Protein Assay was used to quantify the protein lysates (Thermo Fisher Scientific, Waltham, MA). For Immunoblotting, 15–25 μg of protein lysate was prepared in 2X or 4X Laemmeli’s sample buffer (Bio-Rad Laboratories, Hercules, CA) and heated for 5 min at 100 °C. Samples were separated on 8% sodium dodecyl sulfate polyacrylamide gel and transferred onto nitrocellulose membrane (Bio-Rad Laboratories, Hercules, CA). The membranes were blocked for 1 h in Blocker BLOTTO Blocking Buffer (Thermo Fisher Scientific, Waltham, MA) or 5% non-fat milk followed by overnight incubation at 4 °C with primary antibody followed by HRP-conjugated secondary antibodies and visualized with chemiluminescent Pierce ECL Substrate (Thermo Fisher Scientific, Waltham, MA) on X-ray films.
Immunoblot analysis for MOLM-13, MV4-11, and OCI-AML3 AML cell lines (representative of 2-3 independent blots). […] Twenty to 25 μg of total protein lysate was loaded per lane.

Sequence of FLT3-ITD (P36888 564-993, stated change not applied): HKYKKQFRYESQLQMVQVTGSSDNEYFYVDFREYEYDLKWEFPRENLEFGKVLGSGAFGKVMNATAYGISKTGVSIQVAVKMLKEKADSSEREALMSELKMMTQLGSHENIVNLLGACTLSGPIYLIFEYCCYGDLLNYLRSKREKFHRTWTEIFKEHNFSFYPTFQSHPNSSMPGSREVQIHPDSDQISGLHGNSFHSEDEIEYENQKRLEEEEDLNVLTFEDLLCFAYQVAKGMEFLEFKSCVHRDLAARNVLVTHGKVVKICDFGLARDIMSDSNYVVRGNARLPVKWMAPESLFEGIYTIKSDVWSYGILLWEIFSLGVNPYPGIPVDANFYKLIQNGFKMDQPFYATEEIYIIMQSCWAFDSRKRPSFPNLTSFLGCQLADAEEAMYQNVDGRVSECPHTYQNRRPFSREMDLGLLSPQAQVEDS

With O=C(c1ccc(Oc2ccccc2)cc1Cl)c1c[nH]c2ncnc(N[C@@H]3CC[C@@H](CO)OC3)c12 [ARQ 531] the IC50 (FLT3-ITD) was 330 nM, the “resistant to concentrations up to” value (U937) was > 10 µM and the “Estimated absolute µM IC50 (95% CI)” value (U937; 4-parameter logistic model) was “Unable to calculate IC50”. The IC50 (Ba/F3 FLT3-ITD) was 1.21 µM, the median survival ([1]; 50 mg/kg Q.D.P.O from 7 days post-engraftment until ERC, vehicle 21 days) was 23 days and the “median survival advantage vs vehicle” value ([1]; 50 mg/kg Q.D.P.O, log-rank p value = 0.002) was 2 days. The survival [2] was 27 days and the “concentration inhibiting phosphorylated levels of SFK, FLT3, STAT5, and ERK” value [3] was ≤ 500 nM.
